Each structure is given as a SMILES string. Where two headings read alike, the source gives them in different places.

Assay [1] has as its system pre-activated CD4 T cells and Raji cells. Nature of the assay: Raji CD4 T Cell IL2 Assay. Type of assay: cell-based.
The next assay addresses human DGKζ (Homo sapiens (Human), UniProt Q13574). Nature of the assay: DGKζ assay (detergent/lipid micelle substrate). Type of assay: biochemical. The note with it: detergent/lipid micelle substrate; read-out: DGKζ IC50. A digest of the protocol:
(§1)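 Full-length human DGKζ (and DGKα), C-terminal His-tagged, Sf9-expressed, with phosphatidylserine/DAG micelles in 50 mM octyl glucoside; buffer 50 mM MOPS pH 7.5, 100 mM NaCl, 10 mM MgCl2, 1 μM CaCl2, 1 mM DTT.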

The target of another assay is human DGKα (Homo sapiens (Human), UniProt P23743). The experiment in a line: biochemical. The note with it: detergent/lipid micelle substrate; read-out: DGKα IC50. The procedure, abridged:
as §1

Sequence of human DGKα (P23743 other isoform, or with tags, fused parts or gaps): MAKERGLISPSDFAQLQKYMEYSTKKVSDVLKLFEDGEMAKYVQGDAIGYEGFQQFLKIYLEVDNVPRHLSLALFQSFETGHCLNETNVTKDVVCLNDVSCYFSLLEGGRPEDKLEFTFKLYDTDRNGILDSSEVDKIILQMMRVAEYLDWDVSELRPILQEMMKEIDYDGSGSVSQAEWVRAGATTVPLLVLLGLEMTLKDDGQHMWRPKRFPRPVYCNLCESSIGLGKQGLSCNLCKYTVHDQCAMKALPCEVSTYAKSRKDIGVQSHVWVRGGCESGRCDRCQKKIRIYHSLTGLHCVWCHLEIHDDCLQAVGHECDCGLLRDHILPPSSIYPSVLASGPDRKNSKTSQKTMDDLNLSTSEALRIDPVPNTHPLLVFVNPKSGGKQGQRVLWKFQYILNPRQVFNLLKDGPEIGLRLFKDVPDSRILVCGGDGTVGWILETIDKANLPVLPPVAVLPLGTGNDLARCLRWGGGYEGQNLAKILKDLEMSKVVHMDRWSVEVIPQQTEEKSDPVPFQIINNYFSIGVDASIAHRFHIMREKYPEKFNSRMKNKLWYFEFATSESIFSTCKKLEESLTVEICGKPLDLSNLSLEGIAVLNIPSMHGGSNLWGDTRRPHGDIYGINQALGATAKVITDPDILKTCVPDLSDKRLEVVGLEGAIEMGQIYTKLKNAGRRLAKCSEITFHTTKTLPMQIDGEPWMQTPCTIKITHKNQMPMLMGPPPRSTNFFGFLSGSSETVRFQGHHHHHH
Sequence of human DGKζ (Q13574 other isoform, or with tags, fused parts or gaps): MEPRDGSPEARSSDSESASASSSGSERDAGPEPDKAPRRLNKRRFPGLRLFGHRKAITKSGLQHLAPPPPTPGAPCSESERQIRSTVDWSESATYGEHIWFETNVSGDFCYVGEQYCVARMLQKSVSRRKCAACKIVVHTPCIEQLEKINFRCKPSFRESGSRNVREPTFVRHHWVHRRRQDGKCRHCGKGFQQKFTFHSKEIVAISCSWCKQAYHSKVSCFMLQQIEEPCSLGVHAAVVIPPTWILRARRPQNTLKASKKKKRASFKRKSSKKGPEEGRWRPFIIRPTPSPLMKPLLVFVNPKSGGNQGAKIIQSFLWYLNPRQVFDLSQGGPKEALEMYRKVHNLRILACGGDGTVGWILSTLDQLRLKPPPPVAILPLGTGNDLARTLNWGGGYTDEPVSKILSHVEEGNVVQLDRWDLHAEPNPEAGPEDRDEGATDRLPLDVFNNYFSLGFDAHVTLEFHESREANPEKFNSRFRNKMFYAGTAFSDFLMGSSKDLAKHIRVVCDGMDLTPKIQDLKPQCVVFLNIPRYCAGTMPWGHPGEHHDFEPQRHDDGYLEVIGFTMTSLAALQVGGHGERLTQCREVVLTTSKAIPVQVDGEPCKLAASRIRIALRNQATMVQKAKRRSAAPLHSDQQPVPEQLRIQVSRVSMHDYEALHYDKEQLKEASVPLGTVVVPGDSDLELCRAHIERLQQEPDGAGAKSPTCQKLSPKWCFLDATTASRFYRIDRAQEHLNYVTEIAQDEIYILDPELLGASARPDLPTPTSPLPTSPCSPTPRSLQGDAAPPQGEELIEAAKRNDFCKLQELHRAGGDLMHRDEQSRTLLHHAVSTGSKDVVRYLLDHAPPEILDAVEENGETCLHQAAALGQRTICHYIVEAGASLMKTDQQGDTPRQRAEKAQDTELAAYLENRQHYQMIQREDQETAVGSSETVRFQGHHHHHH

`COCCn1c(=O)c(C#N)c(N2CCN(C(c3ccc(F)cc3)c3ccccc3O)CC2)c2nc(Br)ccc21` (stereo not drawn) [Example 117, 6-bromo-4-(4-((4-fluorophenyl)(2-hydroxyphenyl)methyl)piperazin-1-yl)-1-(2-methoxyethyl)-2-oxo-1,2-dihydro-1,5-naphthyridine-3-carbonitrile]: the IC50 was 0.77 µM in assay [1] (Homo sapiens, Raji); 21 µM on human DGKζ; 46 µM at human DGKα.

As to `Cn1c(=O)c([N+](=O)[O-])c(N2CCN(C(c3ccc(F)cc3)c3ccc(F)cc3)CC2)c2nc(C#N)ccc21` [Example 40, 8-(4-(bis(4-fluorophenyl)methyl)piperazin-1-yl)-5-methyl-7-nitro-6-oxo-5,6-dihydro-1,5-naphthyridine-2-carbonitrile], the IC50 came out at 0.037 µM in assay [1] (Homo sapiens, Raji); 1.3 µM on human DGKζ; 1.9 µM at human DGKα.

As to `N#CCn1c(=O)c(C#N)c(N2CCN(C(c3ccc(F)cc3)c3ccc(F)cc3)CC2)c2nc(Br)ccc21` [Example 153, 4-(4-(bis(4-fluorophenyl)methyl)piperazin-1-yl)-6-bromo-1-(cyanomethyl)-2-oxo-1,2-dihydro-1,5-naphthyridine-3-carbonitrile], the IC50 in assay [1] (Homo sapiens, Raji) is 0.71 µM; at human DGKζ it was 76 µM; at human DGKα it was 180 µM.

With `Cc1cc(CN2CCN(c3c(C#N)c(=O)n(C)c4ccc(Cl)nc34)CC2)ccc1O` [Example 356, 6-chloro-4-{4-[(4-hydroxy-3-methylphenyl)methyl]piperazin-1-yl}-1-methyl-2-oxo-1,2-dihydro-1,5-naphthyridine-3-carbonitrile], the IC50 in assay [1] (Homo sapiens, Raji) was 3 µM; at human DGKζ it was more than 240 µM; on human DGKα, 0.3 µM.

Turning to `COCCCn1c(=O)c([N+](=O)[O-])c(N2CCN(C(c3ccccc3)c3ccccc3)CC2)c2ncccc21` [Example 190, 4-(4-benzhydrylpiperazin-1-yl)-1-(3-methoxypropyl)-3-nitro-1,5-naphthyridin-2(1H)-one], the IC50 in assay [1] (Homo sapiens, Raji) was 4.2 µM; on human DGKζ, more than 240 µM; at human DGKα, 58 µM.

As to `Cn1c(=O)c(C#N)c(N2CCN(Cc3ccc(Cl)c(F)c3)CC2)c2nc(Cl)ccc21` [Example 326, 6-chloro-4-{4-[(4-chloro-3-fluorophenyl)methyl]piperazin-1-yl}-1-methyl-2-oxo-1,2-dihydro-1,5-naphthyridine-3-carbonitrile], the IC50 in assay [1] (Homo sapiens, Raji) was 0.38 µM; on human DGKζ it was more than 240 µM; at human DGKα, 1.9 µM.

For `Cn1c(=O)c(Br)c(N2CCN(C(c3ccc(F)cc3)c3ccc(F)cc3)CC2)c2ncccc21` [Example 230, 4-(4-(bis(4-fluorophenyl)methyl)piperazin-1-yl)-3-bromo-1-methyl-1,5-naphthyridin-2(1H)-one], the IC50 was 3.6 µM in assay [1] (Homo sapiens, Raji); more than 240 µM at human DGKζ; 8.8 µM on human DGKα.

Consider `COCCn1c(=O)c([N+](=O)[O-])c(N2CCN(C(c3ccc(F)cc3)c3ccc(F)cc3)CC2)c2nc(C#N)ccc21` [Example 147, 8-(4-(bis(4-fluorophenyl)methyl)piperazin-yl)-5-(2-methoxyethyl)-7-nitro-6-oxo-5,6-dihydro-1,5-naphthyridine-2-carbonitrile], for which the IC50 in assay [1] (Homo sapiens, Raji) turned out to be 0.3 µM; at human DGKζ, 3.6 µM; on human DGKα, 76 µM.

With `C#CCOc1ccccc1C(c1ccc(F)cc1)N1CCN(c2c(C#N)c(=O)n(C)c3ccc(Br)nc23)CC1` (single isomer, unassigned) [Example 6, 6-bromo-4-{4-[(4-fluorophenyl) [2-(prop-2-yn-1-yloxy)phenyl]methyl]piperazin-1-yl}-1-methyl-2-oxo-1,2-dihydro-1,5-naphthyridine-3-carbonitrile], the figures for the IC50 (in assay [1]; at human DGKζ; on human DGKα) were 0.82 µM, more than 240 µM and 6.5 µM, respectively.

Turning to `Cn1c(=O)c(C#N)c(N2CCN(Cc3cc(O)cc(Cl)c3)CC2)c2nc(Cl)ccc21` [Example 345, 6-chloro-4-{4-[(3-chloro-5-hydroxyphenyl)methyl]piperazin-1-yl}-1-methyl-2-oxo-1,2-dihydro-1,5-naphthyridine-3-carbonitrile], the IC50 in assay [1] (Homo sapiens, Raji) was 0.99 µM; at human DGKζ, more than 240 µM; at human DGKα, 4.6 µM.

For `COc1cc(F)ccc1C(c1ccc(F)cc1)N1CCN(c2c([N+](=O)[O-])c(=O)n(C)c3ccc(Br)nc23)CC1` (single isomer, unassigned) [Example 58, 6-bromo-4-(4-((4-fluoro-2-methoxyphenyl)(4-fluorophenyl)methyl)piperazin-1-yl)-1-methyl-3-nitro-1,5-naphthyridin-2(1H)-one], the IC50 in assay [1] worked out at 0.028 µM; at human DGKζ, 19 µM; at human DGKα, 0.25 µM.

Take `COc1cccc(C)c1C(c1ccc(F)cc1)N1CCN(c2c([N+](=O)[O-])c(=O)n(C)c3ccc(Br)nc23)CC1` (single isomer, unassigned) [Example 60, 6-bromo-4-(4-((4-fluorophenyl)(2-methoxy-6-methylphenyl)methyl)piperazin-1-yl)-1-methyl-3-nitro-1,5-naphthyridin-2(1H)-one]: the IC50 in assay [1] is 1.6 µM; at human DGKζ, more than 240 µM; at human DGKα it was 32 µM.

In the case of `N#CCn1c(=O)c(C#N)c(N2CCN(C(c3ccc(F)cc3)c3ccccc3O)CC2)c2nc(Br)ccc21` (stereo not drawn) [Example 157, 6-bromo-1-(cyanomethyl)-4-(4-((4-fluorophenyl)(2-hydroxyphenyl)methyl)piperazin-1-yl)-2-oxo-1,2-dihydro-1,5-naphthyridine-3-carbonitrile], the IC50 is 0.22 µM in assay [1] (Homo sapiens, Raji); 26 µM at human DGKζ; 53 µM on human DGKα.

Turning to `Cc1ccccc1CN1CCN(c2c(C#N)c(=O)n(C)c3ccc(Cl)nc23)CC1` [Example 346, 6-chloro-1-methyl-4-{4-[(2-methylphenyl)methyl]piperazin-1-yl}-2-oxo-1,2-dihydro-1,5-naphthyridine-3-carbonitrile], the IC50 in assay [1] (Homo sapiens, Raji) was 1.1 µM; on human DGKζ, more than 240 µM; at human DGKα, 5.3 µM.

For `COc1ccccc1CN1CCN(c2c(C#N)c(=O)n(C)c3ccc(Cl)nc23)CC1` [Example 331, 6-chloro-4-{4-[(2-methoxyphenyl)methyl]piperazin-1-yl}-1-methyl-2-oxo-1,2-dihydro-1,5-naphthyridine-3-carbonitrile], the IC50 is 0.52 µM in assay [1] (Homo sapiens, Raji); more than 240 µM at human DGKζ; 0.49 µM on human DGKα.

For the compound `Cn1c(=O)c(C#N)c(N2CCN(Cc3cc(Cl)ccc3O)CC2)c2nc(Br)ccc21` [Example 367, 6-bromo-4-{4-[(5-chloro-2-hydroxyphenyl)methyl]piperazin-1-yl}-1-methyl-2-oxo-1,2-dihydro-1,5-naphthyridine-3-carbonitrile], the IC50 in assay [1] (Homo sapiens, Raji) was more than 100 µM; on human DGKζ it was more than 240 µM; on human DGKα, 0.22 µM.

Regarding `C#CCn1c(=O)c(C#N)c(N2CCN(Cc3ccc(F)cc3OC)CC2)c2nc(Br)ccc21` [Example 68, 6-bromo-4-(4-(4-fluoro-2-methoxybenzyl)piperazin-1-yl)-2-oxo-1-(prop-2-yn-1-yl)-1,2-dihydro-1,5-naphthyridine-3-carbonitrile], the IC50 in assay [1] (Homo sapiens, Raji) was determined as 0.052 µM; at human DGKζ, 23 µM; at human DGKα, 4 µM.

As usually defined, the IC50 is the concentration that gives 50% inhibition.

For the origin of these results see US11866430B2, “Naphthyridinone compounds useful as T cell activators” (priority 2018, dated 2024).
